According to patent US20060194698A1, “Use of herbs as a delivery system for bioactive phytochemicals” (priority 2003, published 2006):

What was measured:
Alternaria = assay: Essential oil components against Alternaria growth (saturated cotton swab suspended above culture); assay type: cell-based; settings: pure essential oil component
Protocol: Antifungal activity of the essential oil components against Rhizoctonia and Pythium will be tested by means previously used to evaluate Alternaria growth. Briefly, a cotton swab saturated with the oil is suspended above a culture of the test pathogen. Fungal dry weight is then determined. Appropriate controls are performed.

Sclerotinia = assay: Essential oil components / ground herbage against Sclerotinia and its sclerotia; assay type: cell-based; settings: pure essential oil component

Row | Structure (SMILES) | growth of Alternaria (Alternaria) | activity against the sclerotia of Sclerotinia (Sclerotinia) | growth of Sclerotinia (Sclerotinia)
1 | C=C(C)[C@H]1CC=C(C)CC1 [limonene] | inhibit the growth of Alternaria, but not as effectively as cymene | – | –
2 | Cc1ccc(C(C)C)cc1O [carvacrol] | completely inhibit growth | inhibitory activity | completely inhibit growth
3 | Cc1ccc(C(C)C)c(O)c1 [thymol] | completely inhibit growth | inhibitory activity | completely inhibit growth
4 | Cc1ccc(C(C)C)cc1 [cymene, p-cymene] | reduce the growth | – | –
5 | CC(C)=CCC/C(C)=C/CO [geraniol] | completely inhibit growth | inhibitory activity | completely inhibit growth
